From publication PMC4942781, “A sodium channel inhibitor ISTX-I with a novel structure provides a new hint at the evolutionary link between two toxin folds” (Scientific Reports, 2016) come the findings set out here.

Bridge positions count the residues as written; N and C are the ends. Ends that are not written are not given here.

One assay concerns TTX-r sodium channel. In words: Whole-cell patch clamp, TTX-r sodium currents in rat DRG neurons. The assay is classed as cell-based. As for the experimental part: The effects of ISTX-I on voltage-gated ion channels were investigated in the dorsal root ganglion (DRG). DRG neurons were held at −80 mV for over 4 min to allow adequate equilibration between the micropipette solution and the cell interior, and then current traces were evoked using a 50 ms step depolarization to −10 mV every second.
Figure 3 Effects of ISTX-I on voltage-gated ion channels in rat DRG neurons. […] (C) Dose-dependent inhibition of ISTX-I on the TTX-s Nav channel (n = 5). (D) Current-voltage (I-V) relationship for the TTX-s Nav channel currents before (solid circles) and after (open circles) the application of 5 μM ISTX-I (n = 5). […]
(§1) DRG neurons with a large diameter (>[…]) and those with a relatively small diameter (<[…]) were chosen by measuring TTX-s and TTX-r currents, respectively. […] Potassium, calcium, and sodium currents were recorded in experimental cells using whole-cell patch-clamp recordings at room temperature, which were performed with an HEK EPC10 patch-clamp amplifier. […] Experimental data were acquired and analyzed using the programs patch master and Sigmaplot 9.0 (Sigma, USA). […]
Currents were recorded from experimental cells using whole-cell patch clamptechnique at room temperature (22–25 °C). […] K+ currents were recorded using an internal solution containing the followings (in mM): KCl 140, MgCl2 2.5, HEPES 10, and EGTA 11 (pH 7.2). […]
(In general: The patch-clamp technique gives a direct electrical read-out from membranes.)

The next assay deals with hNav1.1. In words: Whole-cell patch clamp, hNav1.1 in HEK293T cells. The assay is classed as cell-based, human. The conditions noted are these: 10 μM ISTX-I; 50 ms step to -10 mV from -80 mV. As for the experimental part: (§2) HEK293T (human embryonic kidney) cells were grown in DMEM containing 10% heat-inactivated FBS at 37 °C in a 5% CO2 incubator. The cDNA genes encoding human (h)Nav1.1, (h)Nav1.2, (h)Nav1.3, (h)Nav1.4, (h)Nav1.5, (h)Nav1.6 and (h)Nav1.7 were transiently transfected into HEK293T cells for electrophysiology using Lipofectamine-2000 (Invitrogen) in serum-reduced medium (Opti-MEM, Invitrogen) following the manufacturer’s instructions. The auxiliary subunits hβ1 and enhanced green florescent protein plasmids were cotransfected into HEK293T cells to increase the current density and efficiently select cells with green florescent protein for whole-cell patch-clamp recordings. After 12 h, the HEK293T cells were used for electrophysiological analysis.
as §1
(§3) Currents were recorded from experimental cells using whole-cell patch clamptechnique at room temperature (22–25 °C). […]

Another assay has as its system hNav1.3. In words: Whole-cell patch clamp, hNav1.3 in HEK293T cells. Format: cell-based, human. The conditions noted are these: 10 μM ISTX-I; 50 ms step to -10 mV from -80 mV. As for the experimental part:
as §2, §1, §3

As for “LCSENGDCAADECCVDTVFEGDMVTRSCEKTTGNFTECPGLTPIA (disulfide 2-14, 8-28, 13-38) [ISTX-I]”, the “effect on TTX-r sodium channels (summary)” value in the assay with TTX-r sodium channel is “not TTX-r sodium channels”. In the assay on TTX-r sodium channel (10 μM ISTX-I, 100 nM TTX to separate TTX-r currents), the “effect on TTX-r sodium channel currents” value is “no effect”. Moreover, the “effect on hNav1.1” value in the assay on hNav1.1 is on record as “no effect”. The “effect on hNav1.3” value in the assay with hNav1.3 was “no effect”.
